We go through 34 compounds from ChEMBL document CHEMBL1157539, “Thousands of chemical starting points for antimalarial lead identification” (Nature, 2010).

The test system of this assay is Plasmodium falciparum. Nature of the assay: GSK_TCMDC: Inhibition of Plasmodium falciparum 3D7 in whole erythrocytes, using parasite LDH activity as an index of growth. The format is functional, organism-based. Conditions: Plasmodium falciparum, 3D7.
In turn, `CN/C(=C\[N+](=O)[O-])NCCSCc1cc(C)c(CN(C)C)s1` gave an XC50 of 348 nM.

Turning to `N=C(N)NN=CC(=O)Nc1ccc(Cl)c(Cl)c1`, the XC50 turned out to be 737 nM.

`CCN(CC)CCN(Cc1ccc(-c2ccc(Cl)cc2)cc1)C(=O)Cn1cc(CN(C)C)c(=O)nc1SCc1ccc(F)cc1` showed an XC50 of 748 nM.

`Cc1cc(C)n(-c2nc(Nc3cccc(C(F)(F)F)c3)nc(-n3nc(C)cc3C)n2)n1` registered an XC50 of 362 nM.

Compound `O=C(NCc1ccco1)c1ccc(CN2CCN(C(c3ccccc3)c3ccccc3)CC2)cc1` showed an XC50 of 789 nM.

`O=C(CC(=O)C(F)(F)F)c1ccc2c(c1)OCO2`: the XC50 came out at 744 nM.

In the case of `CC(CCCCC(=O)Nc1ccc(C(F)(F)F)cc1)NCC(O)c1cccc(Cl)c1` (centres undefined), the XC50 amounted to 282 nM.

Consider `O=C(N[C@@H](Cc1ccccc1)C(=O)NCc1cccc(C(F)(F)F)c1)c1ccc(O)c(-c2ccc(Cl)c(Cl)c2)c1`, for which the XC50 turned out to be 696 nM.

`CCn1ccc2c(N3CCCCS3(=O)=O)cc(C(=O)N[C@@H](Cc3ccccc3)[C@H](O)CNC3CCCCC3)cc21` yielded an XC50 of 122 nM.

As to `COc1cccc(CN2CCCC(COC(c3ccc(F)cc3)c3ccc(F)cc3)C2)c1O` (centres undefined), the XC50 turned out to be 330 nM.

Take `Cc1cccc2nc(-c3ccc(-c4cccc(CN5CCN(CCN6CCOCC6)CC5)c4)s3)[nH]c12`: the XC50 was 153 nM.

`CCC(NC(=O)c1ccccc1NC(=O)c1ccc(C)cc1)C(=O)OC` (centres undefined) displayed an XC50 of 762 nM.

The compound `N#Cc1ccc(-c2ccc3nc(N4CCCN(C5CCC5)CC4)ccc3c2)cc1` yielded an XC50 of 1500 nM.

`COc1cc2nc(N3CCC(CNC(=O)c4ccc(-c5ccc(C(=O)N(C)C)cc5)cc4)CC3)nc(N)c2cc1OC` came in with an XC50 of 746 nM.

On to `Nc1nc(N)c2c(Oc3cccc4ccccc34)cccc2n1`, for which the XC50 was 1010 nM.

For the compound `N#Cc1ccc2c(c1)CCN(CCC1CCC(NC(=O)c3cc4ccc(Cl)cc4[nH]3)CC1)C2` (centres undefined), the XC50 came out at 700 nM.

`Cc1cc(=NN=Cc2ccc(F)cc2)c2ccc(C(F)(F)F)cc2[nH]1` gave an XC50 of 816 nM.

For `CCCCCCN1CCC(NCc2cccc(-n3ccnc3)c2)CC1`, the XC50 is 255 nM.

Compound `COc1ccccc1C1CC(c2ccccc2)=NN1C(=O)c1ccccc1` (centres undefined) displayed an XC50 of 296 nM.

`CC(C)CCn1c(Sc2ccc(C#N)c([N+](=O)[O-])c2)nnc1-c1ccc(N(C)C)cc1` registered an XC50 of 786 nM.

The compound `COc1cccc(NC(=O)c2ccc(NCCCN3CC(C)CC(C)C3)c([N+](=O)[O-])c2)c1` (centres undefined) yielded an XC50 of 721 nM.

In the case of `COc1ccc(OC)c(Cc2c(C)nc3nc(N)nc(N)c3c2C)c1`, the XC50 was determined as 864 nM.

For the compound `O=C(Nc1ccc(OC2CCN(Cc3ccsc3)C2)c(Cl)c1)c1cccs1` (centres undefined), the XC50 is 960 nM.

Regarding `O=C(Nc1ccc(C(F)(F)F)cc1)c1ccc(S(=O)(=O)NC2CCCN(CC3CCCCC3)C2)cc1` (centres undefined), the XC50 came out at 718 nM.

`O=C(Nc1ccccc1)N(Cc1ccccc1-c1cccc(CNCCc2ccccc2)c1)C1CCN(Cc2ccccc2)CC1` registered an XC50 of 176 nM.

The compound `COc1ccc(N2CCN(c3nc(Nc4ccc(NC(C)=O)cc4)nc(N4CCCC4)n3)CC2)cc1` returned an XC50 of 976 nM.

As to `Cc1cccc2nc(-c3ccc(-c4ccc(CN5CCC(C(N)=O)CC5)cc4)s3)[nH]c12`, the XC50 is 907 nM.

Turning to `COc1cc(NC(=O)/C=C/c2cc3ccccc3n2C)ccc1OCCN(C(C)C)C(C)C`, the XC50 turned out to be 387 nM.

`Cc1ccc(-c2cncc(-c3cc(NC4CCN(Cc5ccccc5)CC4)nc(-c4ccccc4)n3)c2)cc1` returned an XC50 of 720 nM.

Regarding `CCc1ccc(CN2CCC(NC(=O)c3cc(-c4ccc(N(C)C)cc4)cs3)C2)cc1` (centres undefined), the XC50 worked out at 1440 nM.

On to `CCOc1ccc2[nH]c(C)cc(=NN=Cc3cccc(C)n3)c2c1`, for which the XC50 worked out at 754 nM.

`COc1cc2c(cc1OCCN1CCC(N3CCCCC3)CC1)N(C(=O)/C=C/c1ccccc1OC(F)(F)F)CC2` came in with an XC50 of 590 nM.

On to `COc1ccc2[nH]c(C)cc(=NN=Cc3ccccc3F)c2c1`, for which the XC50 was 365 nM.

In turn, `O=C1Nc2cccc3c2C1(CCCCN1CCC(c2c(-c4ccccc4)[nH]c4ccccc24)CC1)CCC3` (centres undefined) gave an XC50 of 1200 nM.
